In patent US6686390B2, “Compounds having antiinflamatory activity: process for their preparation and pharmaceutical compositions containing them” (Dr. Reddy's Laboratories Limited, priority 2000, dated 2004):

What was measured:
[1] = biological target: T1, COX-1 (Homo sapiens, UniProt P23219); assay: Human whole blood assay, COX-1 inhibition; assay type: cell-based
T1 construct: Fresh heparinised human whole blood; endogenous in cells; host or cells: human whole blood
Procedure: (§1) 2) Human Whole Blood Assay:
Fresh heparinised human whole blood was incubated with lipopolysaccharide (LPS) from E. coli at 100 μg/ml and with 2.5 μl vehicle (D)MSO) or test compound for 24 hours at 37° C. PGE2 levels in the plasma were measured using EIA kit (Cayman chemicals, USA) after deproteinization.

[2] = biological target: T2, cox-1 enzyme (Ovis aries, UniProt P05979); assay: Spectrophotometric assay of cox-1 (TMPD oxidation); assay type: biochemical; conditions: microsomal fraction of ram seminal vesicles, read-out: Percent inhibition COX-1; for inhibition at 100 µM: Conc. 100 μM
T2 construct: Microsomal fraction of ram seminal vesicles used as a source of cox-1 enzyme; from tissue; host or cells: ram seminal vesicles (microsomal fraction)
T2 sequence (P05979 25-600): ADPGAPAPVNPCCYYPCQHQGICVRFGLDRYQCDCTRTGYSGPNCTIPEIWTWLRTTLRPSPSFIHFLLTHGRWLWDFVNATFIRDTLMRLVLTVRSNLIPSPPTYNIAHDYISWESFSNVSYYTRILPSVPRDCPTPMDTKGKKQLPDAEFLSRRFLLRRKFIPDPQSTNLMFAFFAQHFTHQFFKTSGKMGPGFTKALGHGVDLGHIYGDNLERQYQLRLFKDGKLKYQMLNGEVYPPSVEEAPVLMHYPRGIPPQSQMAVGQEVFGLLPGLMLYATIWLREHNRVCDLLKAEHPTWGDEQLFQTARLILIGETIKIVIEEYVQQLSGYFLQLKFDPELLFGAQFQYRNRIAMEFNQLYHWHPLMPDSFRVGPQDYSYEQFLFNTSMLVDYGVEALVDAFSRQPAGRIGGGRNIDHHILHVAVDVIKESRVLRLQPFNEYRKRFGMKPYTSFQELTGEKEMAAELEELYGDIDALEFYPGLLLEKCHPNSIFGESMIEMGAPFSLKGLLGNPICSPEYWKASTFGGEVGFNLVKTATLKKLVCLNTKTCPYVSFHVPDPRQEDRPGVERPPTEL
Procedure: (§2) 1. Spectrophotometric assay of cox-1 and cox-2:
(§3) Microsomal fraction of ram seminal vesicles used as a source of cox-1 enzyme (Hemler et al., 1976) and microsomes from sf-9 cells infected with baculo virus containing human cox-2 c-DNA used as a source of cox-2 enzyme (Wanda et al., 1994). Enzyme activity was measured using a chromogenic assay based on oxidation of N,N,N′,N′-tetramethyl-p-phenylenediamine (TMPD) during the reduction of PGG2 to PGH2 as per described by Copeland et al., 1994 with following modifications. The assay mixture (1000 μl) contains […] pH 8.0, 3 μM EDTA, 15 μM hematin, 150 units enzyme and 8% DMSO. The mixture was pre-incubated at 25° C. for 15 minutes before initiation of enzyme reaction in presence of compound/vehicle. The reaction was initiated by the addition of 100 μM arachidonic acid and 120 μM TMPD. The enzyme activity is measured by estimation of the initial velocity of TMPD oxidation over the first 25 seconds of the reaction followed by increase in absorbency at […]. The IC50 values were calculated using non-linear regression analysis of percent inhibitions.

[3] = biological target: T3, COX-2 (Homo sapiens, UniProt P35354); assay: Spectrophotometric assay of cox-2 (TMPD oxidation); assay type: biochemical; set-up: made in house; host or cells: sf-9 insect cells, baculovirus; conditions: microsomes from sf-9 cells with human cox-2, read-out: Percent inhibition COX-2; for inhibition at 100 µM: Conc. 100 μM
T3 sequence (P35354 18-604): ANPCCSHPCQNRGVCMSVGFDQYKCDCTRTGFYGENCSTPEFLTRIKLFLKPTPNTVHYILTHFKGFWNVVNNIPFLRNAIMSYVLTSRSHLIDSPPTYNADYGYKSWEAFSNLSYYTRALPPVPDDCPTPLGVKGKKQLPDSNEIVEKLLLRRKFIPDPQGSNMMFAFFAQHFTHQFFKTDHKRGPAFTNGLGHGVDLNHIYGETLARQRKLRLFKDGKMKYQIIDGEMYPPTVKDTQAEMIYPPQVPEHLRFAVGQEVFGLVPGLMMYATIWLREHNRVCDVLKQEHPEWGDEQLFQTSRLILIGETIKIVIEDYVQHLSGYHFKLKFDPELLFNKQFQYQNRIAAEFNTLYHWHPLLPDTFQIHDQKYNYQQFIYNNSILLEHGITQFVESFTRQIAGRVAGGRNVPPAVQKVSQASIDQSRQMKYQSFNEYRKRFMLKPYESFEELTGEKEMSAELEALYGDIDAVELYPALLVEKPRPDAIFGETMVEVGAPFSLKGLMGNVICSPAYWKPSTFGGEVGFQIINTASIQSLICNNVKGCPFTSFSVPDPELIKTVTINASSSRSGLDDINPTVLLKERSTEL
Procedure: as §2, §3

[4] = biological target: T3, COX-2; assay: Human whole blood assay, COX-2 inhibition; assay type: cell-based; set-up: endogenous in cells; host or cells: human whole blood; conditions: read-out: IC50 COX-II
Procedure: as §1
An aliquot of fresh blood was mixed either with DMSO or test compounds and was allowed to clot for 1 hour at 37° C. TXB2 levels in the serum were measured using EIA kit (Cayman chemicals, USA) after deproteinization.

T1 sequence (P23219 24-599): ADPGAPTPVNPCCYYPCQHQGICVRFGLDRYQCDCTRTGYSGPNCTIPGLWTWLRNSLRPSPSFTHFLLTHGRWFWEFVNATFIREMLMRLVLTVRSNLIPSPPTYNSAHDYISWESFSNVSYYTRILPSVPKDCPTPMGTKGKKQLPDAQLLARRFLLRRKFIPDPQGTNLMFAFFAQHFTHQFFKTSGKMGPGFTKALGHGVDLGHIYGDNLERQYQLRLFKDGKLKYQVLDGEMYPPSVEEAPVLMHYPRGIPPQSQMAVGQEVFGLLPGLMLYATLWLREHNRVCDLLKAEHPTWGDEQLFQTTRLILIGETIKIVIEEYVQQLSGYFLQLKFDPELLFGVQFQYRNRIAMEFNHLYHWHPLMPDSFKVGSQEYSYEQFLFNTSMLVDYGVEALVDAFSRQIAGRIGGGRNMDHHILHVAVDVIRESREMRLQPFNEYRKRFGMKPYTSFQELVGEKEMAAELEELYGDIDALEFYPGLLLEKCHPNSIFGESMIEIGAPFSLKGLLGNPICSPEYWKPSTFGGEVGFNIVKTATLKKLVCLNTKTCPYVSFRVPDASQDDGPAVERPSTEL

melting point [°C]	IC50 [1] [µM]	inhibition at 100 µM [2] [%]	inhibition at 100 µM [3] [%]	IC50 [4] [µM]	inhibition at 10 µM ([2]; Conc. 10 μM) [%]	inhibition at 10 µM ([3]; Conc. 10 μM) [%]	Structure (SMILES)
125 to 128	1220 ± 20	12	100	0.578 ± 0.011			CS(=O)(=O)c1ccc(C2=C(c3cccc(F)c3)C(=O)OC2)c(F)c1 [Example 52, 4-(2-Fluoro-4-methylsulfonylphenyl)-3-(3-fluorophenyl)-2,5-dihydro-2-furanone]
177 to 180	247 ± 24	44	100	0.368			CSc1ccc(C2=C(c3ccc(S(C)(=O)=O)c(F)c3)COC2=O)cc1C [Example 53, 4-(3-Fluoro-4-methylsulfonylphenyl)-3-(3-methyl-4-methylsulfanylphenyl)-2,5-dihydro-2-furanone]
144 to 146	357 ± 7.45	19	93	0.524 ± 0.062			COc1ccc(C2=C(c3ccc(S(C)(=O)=O)cc3F)COC2=O)cc1C [Example 58, 4-(2-Fluoro-4-methylsulfonylphenyl)-3-(3-methyl-4-methoxyphenyl)-2,5-dihydro-2-furanone]
147 to 150	> 100	30	100	1			COc1ccc(C2=C(c3ccc(S(C)(=O)=O)c(C)c3)COC2=O)cc1C [Example 55, 3-(3-Methyl-4-methoxyphenyl)-4-(3-methyl-4-methylsulfonylphenyl)-2,5-dihydro-2-furanone]
160 to 162	195 ± 27.5	33	100	2.72 ± 0.425			CS(=O)(=O)c1ccc(C2=C(c3ccc(F)cc3)C(=O)OC2)c(F)c1 [Example 1, 3-(4-Fluorophenyl)-4-(2-fluoro-4-methylsulfonylphenyl)-2,5-dihydro-2-furanone]
176 to 178	297	0	100	1.25			CCC1OC(=O)C(c2ccc(F)cc2)=C1c1ccc(S(C)(=O)=O)c(F)c1 (stereo not shown) [Example 68, 5-Ethyl-4-(3-fluoro-4-methylsulfonylphenyl)-3-(4-fluorophenyl)-2,5-dihydro-2-furanone]
190 to 192	> 1000			6.13	0	95	CC1OC(=O)C(c2ccc(F)cc2)=C1c1ccc(S(C)(=O)=O)c(F)c1 (stereo not shown) [Example 89, 4-(3-Fluoro-4-methylsulfonylphenyl)-3-(4-fluorophenyl)-5-methyl-2,5-dihydro-2-furanone]
125 to 127	115	49	92	0.913			CS(=O)(=O)c1ccc(C2=C(c3cc(F)cc(F)c3)C(=O)OC2)c(F)c1 [Example 70, 3-(3,5-Difluorophenyl)-4-(2-fluoro-4-methylsulfonylphenyl)-2,5-dihydro-2-furanone]
